Source: patent US20150045266A1, “IONIC LIQUID AS LUBRICATING OIL BASE STOCKS, COBASE STOCKS AND MULTIFUNCTIONAL FUNCTIONAL FLUIDS” (ExxonMobil Research and Engineering Company, priority 2012, published 2015)

Assay: Solubility in di(tridecyl) adipate ester base stock (Esterex A51)
Assay type: physicochemical
Settings: Group V ester base stock
Description: The ionic liquids of Examples 5, 7, 9, 11 and 13 have good viscosity index.

Solubility in di(tridecyl) adipate ester base stocks, highly soluble:
CCCCCCCCCC[n+]1ccn(CCCC)c1 [Example 9, 1-butyl-3-decylimidazolium bis(trifluoromethanesulfonyl)imide]
CCCCCCCCCCn1cc[n+](C)c1 [Example 5, 1-methyl-3-decylimidazolium bis(trifluoromethanesulfonyl)imide]
CCCCCCCCCCCCCCCCn1cc[n+](C)c1 [Example 7, 1-methyl-3-hexadecylimidazolium bis(trifluoromethanesulfonyl)imide]
CCCCCCCCCCCCCCCC[n+]1ccn(CCCC)c1 [Example 11, 1-butyl-3-hexadecylimidazolium bis(trifluoromethanesulfonyl)imide]
CCCCCCCCCC[n+]1ccn(Cc2ccccc2)c1 [Example 13, 1-benzyl-3-decylimidazolium bis(trifluoromethanesulfonyl)imide]
